Test results published in US9075014B2, “pH-responsive fluorescent false neurotransmitters and their use” (THE TRUSTEES OF COLUMBIA UNIVERSITY IN THE CITY OF NEW YORK, priority 2011, dated 2015).
Several values for one entry are separate records, joined by “and”; a condition that tells them apart may be missing. Equal entries are not always repeated. Entries after “also recorded” stand apart in the source; their conditions may differ.

How the values were obtained:
[1] = log D by shake flask method (n-octanol / PBS pH 7.4); format: physicochemical
Method: The log D values were determined by traditional shake flask method. Each measurement was performed in duplicate as follows. First, 20 μM probe solution in 1 mL PBS (pH 7.4) was prepared to which 1 mL of n-octanol was added and mixed thoroughly. The mixture was kept in dark for 3 days for complete equilibrium, and the concentrations of probe in each layer were determined based on the UV absorbance. Log D values were determined based on the equation; log D=log [probe]oct−log [probe]PBS, where [probe]oct and [probe]PBS are the concentrations of the probe in n-octanol and PBS, respectively.

[2] = pKa from absorption spectra in PBS at different pH; format: physicochemical; details: from absorbance at λabs,max versus pH of PBS
Method: UV absorption spectra were taken by adding probe (2 μL of 10 mM stock solution in DMSO) to 998 μL of PBS buffer at different pH values (final probe conc.=20 μM) in quartz cuvette.
The pKa values of probes were determined from the absorption spectra.

VMAT2 = target: T1, VMAT2 (Rattus norvegicus, UniProt Q01827); experiment: Fluorescent microscopy probe uptake assay in VMAT2/HEK cells; format: cell-based; details: 20 μM probe; for Uptake pattern in screening with VMAT2/HEK and HEK cells: 30 min, VMAT2/HEK vs HEK cells, with or without 1 μM TBZ or reserpine; for Probe uptake in VMAT2-HEK cells: 30 min incubation
T1 construct: host or cells: HEK GnTI- (nonglycosylating) cells stably expressing VMAT2
Method: HEK GNTI^− (nonglycosylating) cell line stably expressing VMAT2 (VMAT2-HEK) and HEK GNU^− cell line stably transected with TetR (HEK) to serve as a control were kindly provided by the laboratory of Robert Edwards at UCSF. Cells were grown in DMEM+Glutamax (Invitrogen #10569) with 10% fetal bovine serum (FBS) (Atlanta Biologicals), 100 U/ml penicillin (Nitrogen), and 100 μg/ml streptomycin (Invitrogen). […] The medium was removed by aspiration, and the cells were washed with PBS (2 mL per well). […] Then, the probe uptake was initiated by adding 0.1 mL of experimental media containing probe (220 μM, prepared from 10 mM stock solution in DMSO, final conc.=20 μM in the uptake assay). After incubating at 37° C. for 30 minutes, the media was removed by aspiration, and the cells were washed with PBS (2 mL per well) and treated with probe-free experimental media. Fluorescence images were taken by using Leica FW 4000 equipped with Chroma custom filter cube (ex=350/50 nm, em=460/50 nm) and Hamamatsu digital camera C4742-95. The fluorescent images and bright field images were acquired for 2000 ms and 37 ms, respectively. All images were adjusted using the same contrast and brightness level using Images J (National Institute of Health).

HEK cells = experiment: Fluorescent microscopy probe uptake in control (non-transfected) HEK cells; format: cell-based, human; details: 20 μM probe, 30 min incubation
Method: HEK GNTI^− (nonglycosylating) cell line stably expressing VMAT2 (VMAT2-HEK) and HEK GNU^− cell line stably transected with TetR (HEK) to serve as a control were kindly provided by the laboratory of Robert Edwards at UCSF. Cells were grown in DMEM+Glutamax (Invitrogen #10569) with 10% fetal bovine serum (FBS) (Atlanta Biologicals), 100 U/ml penicillin (Nitrogen), and 100 μg/ml streptomycin (Invitrogen). […] After 5 days, the cells looked fibroblastic and had reached ˜70% confluence. The medium was removed by aspiration, and the cells were washed with PBS (2 mL per well). […] Then, the probe uptake was initiated by adding 0.1 mL of experimental media containing probe (220 μM, prepared from 10 mM stock solution in DMSO, final conc.=20 μM in the uptake assay). After incubating at 37° C. for 30 minutes, the media was removed by aspiration, and the cells were washed with PBS (2 mL per well) and treated with probe-free experimental media. Fluorescence images were taken by using Leica FW 4000 equipped with Chroma custom filter cube (ex=350/50 nm, em=460/50 nm) and Hamamatsu digital camera C4742-95. The fluorescent images and bright field images were acquired for 2000 ms and 37 ms, respectively. All images were adjusted using the same contrast and brightness level using Images J (National Institute of Health).

VMAT1 = target: T2, VMAT1 (Rattus norvegicus, UniProt Q01818); experiment: Fluorescent microscopy uptake of Mini202 in PC-12 cells; format: cell-based
T2 construct: PC-12 cells express mostly VMAT1 on their secretory large dense core vesicles (LDCVs); host or cells: PC-12 cells
T2 sequence (Q01818 1-521): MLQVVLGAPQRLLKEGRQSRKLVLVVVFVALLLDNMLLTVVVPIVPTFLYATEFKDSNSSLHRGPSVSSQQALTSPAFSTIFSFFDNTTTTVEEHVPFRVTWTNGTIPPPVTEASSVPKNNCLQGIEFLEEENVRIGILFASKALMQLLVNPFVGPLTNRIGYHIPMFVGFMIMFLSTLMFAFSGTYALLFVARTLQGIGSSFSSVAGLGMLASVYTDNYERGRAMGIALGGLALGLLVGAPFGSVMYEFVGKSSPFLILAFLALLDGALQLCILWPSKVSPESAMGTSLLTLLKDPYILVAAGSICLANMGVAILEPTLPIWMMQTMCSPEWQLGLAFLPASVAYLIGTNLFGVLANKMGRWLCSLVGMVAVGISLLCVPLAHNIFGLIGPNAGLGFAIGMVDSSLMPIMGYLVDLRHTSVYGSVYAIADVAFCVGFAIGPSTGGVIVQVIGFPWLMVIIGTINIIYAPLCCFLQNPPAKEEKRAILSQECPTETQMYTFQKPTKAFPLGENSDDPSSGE
Method: PC-12 cells were purchased and maintained according to the protocols provided by American Type Culture Collection (ATCC, CRL-1721). Among the two variations of PC-12 provided by ATCC, the one displaying loosely adherent (with no PDL coating) and multicell-aggregating phenotype was used. PC-12 cells were grown in RPMI-1640 (Invitrogen, #11875) with 10% horse serum (Invitrogen, #16050-114), 5% fetal bovine serum (FBS) (Atlanta Biologicals), 100 U/ml penicillin (Invitrogen), and 100 μg/ml streptomycin (Invitrogen). […] After 6 days when the cells get ˜70% confluent, the medium was removed by aspiration, and the cells were washed with PBS (2 mL per well). […] Then, the probe uptake was initiated by adding 0.1 mL of experimental media containing Mini202 (220 μM, prepared from 10 mM stock solution in DMSO, final conc.=20 μM in the uptake assay) to the cells. After incubating the cells at 37° C. for 1 hour, the medium was removed by aspiration, and cells were washed with PBS (2 mL per well) and treated with dye-free experimental media. Fluorescence images were taken by using Leica FW 4000 equipped with Chroma custom filter cube (ex=350/50 nm, em=460/50 nm) and Hamamatsu digital camera C4742-95. The fluorescent images and bright field images were acquired for 2000 ms and 37 ms, respectively. […]

[3] = Photostability of probe in fluorescence microscopy
[4] = Two-photon ratiometric pH measurement of secretory vesicles (LDCVs) in PC-12 cells
VMAT2-HEK cells = experiment: Chloroquine-induced Mini202 redistribution in VMAT2-HEK cells; format: cell-based, human; details: chloroquine 300 μM, 3 min, VMAT2-HEK cells labeled with Mini202
Method: For the chloroquine-induced Mini202 redistribution experiment, after probe loading and cell washing with PBS, 1 mL of experimental media containing 300 μM chloroquine was added to the cells at RT for 3 minutes, after which time fluorescent images were taken by the same procedure described above.

LDCVs in PC-12 cells = experiment: Two-photon ratiometric pH measurement of secretory vesicles (LDCVs) in PC-12 cells; details: PC-12 cells loaded with Mini202, 100 μM methamphetamine, 5 minutes, RT
[5] = n-octanol / PBS pH 7.4, 20 μM probe
[6] = PBS buffer at different pH values, read-out: pKa
[7] = n-octanol/PBS, pH 7.4, n-octanol / PBS pH 7.4, 20 μM probe

T1 sequence (Q01827 whole entry): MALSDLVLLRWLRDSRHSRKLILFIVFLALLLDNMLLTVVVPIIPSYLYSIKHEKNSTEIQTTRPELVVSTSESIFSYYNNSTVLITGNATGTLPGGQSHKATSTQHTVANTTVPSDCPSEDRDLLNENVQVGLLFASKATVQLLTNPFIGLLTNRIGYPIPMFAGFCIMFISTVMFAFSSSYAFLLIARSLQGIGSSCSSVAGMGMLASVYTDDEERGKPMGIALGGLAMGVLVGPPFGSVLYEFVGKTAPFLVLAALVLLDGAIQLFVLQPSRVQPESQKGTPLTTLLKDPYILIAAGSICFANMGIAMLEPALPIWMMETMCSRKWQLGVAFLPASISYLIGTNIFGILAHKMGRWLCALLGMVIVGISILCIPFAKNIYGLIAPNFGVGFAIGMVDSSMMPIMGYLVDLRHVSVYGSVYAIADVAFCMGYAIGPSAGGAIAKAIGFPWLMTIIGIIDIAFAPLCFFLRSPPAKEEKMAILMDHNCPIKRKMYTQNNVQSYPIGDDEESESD

Which logD at 3 days [1, 5] does the source give for `NCCC(=O)c1cc2ccc(O)cc2oc1=O` [Mini301] here?
The logD at 3 days was 0.14.

And the pKa [2, 6]?
The pKa was 7.

What about the “Uptake pattern in screening with VMAT2/HEK and HEK cells” value (VMAT2) of the same molecule?
Its value is “no uptake in either cell lines”.

What does the source list for `NCCc1cc(=O)oc2cc(O)c(Cl)cc12` [Mini102]?
logD at 3 days [1, 7]: -1.45; pKa [2, 6]: 5.8; pKa [2]: 5.77

For `NCCc1cc(=O)oc2c(Cc3ccccc3)c(O)c(F)cc12` [Mini106], which logD at 3 days [1, 5] is on record?
The logD at 3 days was 0.18.

What about the pKa [2, 6] of the same molecule?
Its pKa is 6.09.

And the “Uptake pattern in screening with VMAT2/HEK and HEK cells” value (VMAT2)?
Its value is “VMAT2 substrates”.

For `CC(C)(C)CC(C)(C)c1cc2c(CCN)cc(=O)oc2cc1O` [Mini105], which logD at 3 days [1, 5] is on record?
The logD at 3 days was 1.3.

What about the pKa [2, 6] of the same molecule?
Its pKa is 8.49.

What about the “Uptake pattern in screening with VMAT2/HEK and HEK cells” value (VMAT2) of the same molecule?
Its value is “non-selective uptake”.

For `NCCc1cc(=O)oc2cc(O)c(F)cc12` [Mini103], which logD at 3 days [1, 7] is on record?
The logD at 3 days was -1.98.

What about the pKa [2, 6] of the same molecule?
The pKa was 5.95.

Which results are given for `NCCc1cc2c(ccc3ccc(O)cc32)oc1=O` [Mini401]?
logD at 3 days [1, 5]: 0.86; pKa [2, 6]: 9.36; Uptake pattern in screening with VMAT2/HEK and HEK cells (VMAT2): non-selective uptake

What does the source list for `CC(C)(C)c1cc2c(CCN)cc(=O)oc2cc1O` [Mini104]?
logD at 3 days [1, 7]: 0.89; pKa [2, 6]: 7.94; Uptake pattern in screening with VMAT2/HEK and HEK cells (VMAT2): non-selective uptake

Which logD at 3 days [1, 5] does the source give for `NCCC(=O)c1cc2cc(Cl)c(O)cc2oc1=O` [Mini302] here?
The logD at 3 days was 0.24.

And the pKa [2, 6]?
The pKa was 4.68.

What about the “Uptake pattern in screening with VMAT2/HEK and HEK cells” value (VMAT2) of the same molecule?
The value was “no uptake in either cell lines”.

Which results are given for `NCCc1cc2cc(Cl)c(O)cc2oc1=O` [Mini202]?
LogD (at pH 7.4) [1, 5]: −1.5 and −1.42; pKa [2, 6]: 6.1; pKa [2]: 6.06; Uptake pattern in screening with VMAT2/HEK and HEK cells (VMAT2): VMAT2 substrates; Probe uptake in VMAT2-HEK cells (VMAT2): highest uptake; also recorded: punctuate fluorescence patterns; Probe uptake in VMAT2-HEK cells (VMAT2; listed as Mini202.TFA): punctuate uptake in a VMAT2-dependent manner; also recorded: fluorescent puncta; Probe uptake in non-transfected HEK cells (HEK cells): No uptake; Probe uptake in non-transfected HEK cells (HEK cells; listed as Mini202.TFA): no uptake; Mini202 uptake / labeling in PC-12 cells (VMAT1; 20 μM, 1 h): fluorescent puncta; also recorded: VMAT1 substrate; Photostability [3]: photostable; pKa [4]: 5.93 ± 0.04

Which “Redistribution of Mini202 from acidic vesicles” value (VMAT2-HEK cells) does the source give for `CCN(CC)CCCC(C)Nc1ccnc2cc(Cl)ccc12` (centres unmarked) [chloroquine] here?
The value was “diffusion of the punctuate fluorescent pattern; also recorded: redistribution of Mini202 from the acidic vesicles to cytosol”.

Which “Effect of VMAT1 inhibitor on Mini202 uptake in PC-12 cells” value (VMAT1; reserpine 1 μM, 1 h pre-incubation, then 20 μM Mini202 1 h) does the source give for `COC(=O)[C@H]1[C@H]2C[C@@H]3c4[nH]c5cc(OC)ccc5c4CCN3C[C@H]2C[C@@H](OC(=O)c2cc(OC)c(OC)c(OC)c2)[C@@H]1OC` [reserpine, reference compound] here?
Its value is “no detectable labeling; also recorded: completely inhibited”.

For `CN[C@@H](C)Cc1ccccc1` [methamphetamine], which “emission ratio (I760/I692) after drug exposure” value (LDCVs in PC-12 cells) is on record?
Its value is 1.19.

What about the “vesicular pH in PC-12 cells after drug exposure” value (LDCVs in PC-12 cells) of the same molecule?
Its value is 6.36 and 6.4.

Which results are given for `NCCc1cc(=O)oc2cc(O)ccc12` [Mini101]?
logD at 3 days [1, 7]: -0.94; pKa [2, 6]: 7.2; pKa [2]: 7.24

Which results are given for `NCCc1cc2ccc(O)cc2oc1=O` [Mini201]?
logD at 3 days [1, 7]: -1.01; pKa [2, 6]: 7.6; Uptake pattern in screening with VMAT2/HEK and HEK cells (VMAT2): VMAT2 substrates
